Consider 6 molecules from patent US20230049952A1, “METHODS AND COMPOUNDS FOR RESTORING MUTANT P53 FUNCTION” (PMV Pharmaceuticals, Inc., priority 2020, published 2023).

For one data set, the system named is human hepatocytes. Briefly: metabolic stability in cryopreserved hepatocytes. It is filed as in vitro ADME. How it is done:
(§1) Mixed-gender human cryopreserved hepatocytes, male Sprague-Dawley rat cryopreserved hepatocytes, male CD-1 mouse cryopreserved hepatocytes, male beagle dog cryopreserved hepatocytes, and male cynomolgus monkey cryopreserved hepatocytes were used for the study. The hepatocytes were thawed, pooled into Krebs Henseleit buffer (KHB, pH 7.4), and kept on ice prior to the experiments. […] Each experiment was performed in triplicate. The final DMSO content in the incubation mixture was ≤0.1%. […] Positive controls, testosterone (1 μM) and 7-hydroxycoumarin (7-HC) (100 μM), were performed in parallel to confirm the activity of the hepatocytes. […] Aliquots of testosterone were withdrawn (n=1) at 0, 5, 15, 30, 60, and 120 minutes. Aliquots of 7-HC were withdrawn (n=1) at 0 and 15 minutes. The reaction was immediately terminated by adding three volumes of ice-cold MeCN containing IS. The samples were then mixed and spun by centrifuge to precipitate proteins. An aliquot of the supernatant was then diluted with water. Calibration standards for the analysis of 7-HC metabolites were prepared in matched matrix. […] All samples were analyzed by LC-MS/MS. The peak area response ratio (PARR) vs. IS was compared to the PARR at time 0 to determine the percent remaining at each time point. Half-lives and clearance values were calculated using GraphPad software, fitting to a single-phase exponential decay equation.
(§2) Mixed-gender human cryopreserved hepatocytes, male Sprague-Dawley rat cryopreserved hepatocytes, male CD-1 mouse cryopreserved hepatocytes, male beagle dog cryopreserved hepatocytes, and male cynomolgus monkey cryopreserved hepatocytes were thawed and pooled into KHB buffer (pH 7.4) and kept on ice prior to the experiments. […] Each experiment was performed in triplicate. The final DMSO content in the incubation mixture was ≤0.1%.
(§3) Positive controls, testosterone (1 μM) and 7-hydroxycoumarin (7-HC) (100 μM), were performed in parallel to confirm the activity of the hepatocytes. […] Aliquots of testosterone were withdrawn (n=1) at 0, 5, 15, 30, 60, and 120 minutes. Aliquots of 7-HC were withdrawn (n=1) at 0 and 15 minutes. The reaction was immediately terminated by adding three volumes of ice-cold MeCN containing IS. The samples were then mixed and spun by centrifuge to precipitate proteins. An aliquot of the supernatant was then diluted with water. Calibration standards for the analysis of 7-HC metabolites were prepared in matched matrix. […] All samples were analyzed by LC-MS/MS. Analytical conditions are outlined below. The peak area response ratio (PARR) vs. IS was compared to the PARR at time 0 to determine the percent remaining at each time point. Half-lives and clearance values were calculated using GraphPad software, fitting to a single-phase exponential decay equation.

A short description of data set [1]: metabolic stability in cryopreserved hepatocytes. It is filed as in vitro ADME, rat. How it is done:
as §1, §2, §3

Data set [2] in a line: metabolic stability in cryopreserved hepatocytes. The data set is classed as in vitro ADME, mouse. How it is done: as §1, §2, §3
Data set [3] is described as follows: metabolic stability in cryopreserved hepatocytes. The data set is classed as in vitro ADME, dog. As for the experimental part:
Mixed-gender human cryopreserved hepatocytes, male Sprague-Dawley rat cryopreserved hepatocytes, male CD-1 mouse cryopreserved hepatocytes, male beagle dog cryopreserved hepatocytes, and male cynomolgus monkey cryopreserved hepatocytes were used for the study. The hepatocytes were thawed, pooled into Krebs Henseleit buffer (KHB, pH 7.4), and kept on ice prior to the experiments. […] Each experiment was performed in triplicate. The final DMSO content in the incubation mixture was ≤0.1%. […] Aliquots of testosterone were withdrawn (n=1) at 0, 5, 15, 30, 60, and 120 minutes. Aliquots of 7-HC were withdrawn (n=1) at 0 and 15 minutes. The reaction was immediately terminated by adding three volumes of ice-cold MeCN containing IS. The samples were then mixed and spun by centrifuge to precipitate proteins. An aliquot of the supernatant was then diluted with water. Calibration standards for the analysis of 7-HC metabolites were prepared in matched matrix. […] All samples were analyzed by LC-MS/MS. The peak area response ratio (PARR) vs. IS was compared to the PARR at time 0 to determine the percent remaining at each time point. Half-lives and clearance values were calculated using GraphPad software, fitting to a single-phase exponential decay equation.
as §2
Aliquots of testosterone were withdrawn (n=1) at 0, 5, 15, 30, 60, and 120 minutes. Aliquots of 7-HC were withdrawn (n=1) at 0 and 15 minutes. The reaction was immediately terminated by adding three volumes of ice-cold MeCN containing IS. The samples were then mixed and spun by centrifuge to precipitate proteins. An aliquot of the supernatant was then diluted with water. Calibration standards for the analysis of 7-HC metabolites were prepared in matched matrix. […] All samples were analyzed by LC-MS/MS. Analytical conditions are outlined below. The peak area response ratio (PARR) vs. IS was compared to the PARR at time 0 to determine the percent remaining at each time point. Half-lives and clearance values were calculated using GraphPad software, fitting to a single-phase exponential decay equation.

The nature of data set [4]: metabolic stability in cryopreserved hepatocytes. The data set is classed as in vitro ADME, cynomolgus monkey. How it is done: as §1, §2, §3
Another data set concerns the target T1, OCT2 (Homo sapiens, UniProt O15244).
T1 sequence (O15244 1-555): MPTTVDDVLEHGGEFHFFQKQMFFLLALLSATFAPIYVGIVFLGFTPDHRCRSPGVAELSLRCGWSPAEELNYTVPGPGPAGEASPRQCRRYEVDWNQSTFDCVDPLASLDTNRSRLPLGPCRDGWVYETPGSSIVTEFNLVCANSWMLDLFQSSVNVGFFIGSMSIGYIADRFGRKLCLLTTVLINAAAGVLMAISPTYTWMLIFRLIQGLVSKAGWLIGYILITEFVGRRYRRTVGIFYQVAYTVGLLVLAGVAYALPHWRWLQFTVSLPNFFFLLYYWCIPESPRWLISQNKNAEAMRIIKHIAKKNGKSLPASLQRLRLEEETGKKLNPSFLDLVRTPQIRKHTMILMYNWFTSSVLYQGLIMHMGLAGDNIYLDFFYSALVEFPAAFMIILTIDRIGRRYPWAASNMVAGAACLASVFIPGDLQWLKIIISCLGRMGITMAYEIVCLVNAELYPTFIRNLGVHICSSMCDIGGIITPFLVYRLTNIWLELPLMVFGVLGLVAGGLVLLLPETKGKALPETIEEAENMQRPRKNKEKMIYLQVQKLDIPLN
The following applies: 2 min/5 μM. How it is done:
All experiments were conducted in duplicate (n=2). The cells were incubated for the indicated time in a humidified incubator (37° C. 5% CO2). […] The uptake incubation was stopped by two washes with ice-cold HBSSg.

The next data set deals with T2, CYP2C8 (Homo sapiens, UniProt P10632).
T2 sequence (P10632 1-490): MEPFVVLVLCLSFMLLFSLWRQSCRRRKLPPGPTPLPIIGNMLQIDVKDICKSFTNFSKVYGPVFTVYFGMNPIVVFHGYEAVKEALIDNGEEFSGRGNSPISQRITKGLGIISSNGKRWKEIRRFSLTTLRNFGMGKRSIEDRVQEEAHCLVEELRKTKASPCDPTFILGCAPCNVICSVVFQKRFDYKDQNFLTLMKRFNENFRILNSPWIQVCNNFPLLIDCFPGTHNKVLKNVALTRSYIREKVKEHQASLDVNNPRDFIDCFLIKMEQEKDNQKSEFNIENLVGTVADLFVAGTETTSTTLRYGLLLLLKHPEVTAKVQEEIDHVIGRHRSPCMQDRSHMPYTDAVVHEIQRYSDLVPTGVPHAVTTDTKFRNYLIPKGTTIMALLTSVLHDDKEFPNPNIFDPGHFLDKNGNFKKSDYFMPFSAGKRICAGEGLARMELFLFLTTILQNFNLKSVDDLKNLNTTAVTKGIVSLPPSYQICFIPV
The experiment in a line: in vitro. The settings on record: both, microsomes, pH 7.4.

For another data set, the target named is CYP2D6 (Homo sapiens, UniProt P10635). Briefly: CYP inhibition in human liver microsomes. The data set is classed as in vitro ADME. The arrangement: from tissue; host or cells: pooled human liver microsomes, 200 donors. The following applies: both sexes, pooled human liver microsomes, pH 7.4, HLM, read-out: % of Control Enzyme Activity.
Another data set addresses CYP2C9 (Homo sapiens, UniProt P11712). Briefly: CYP inhibition in human liver microsomes. It is filed as in vitro ADME. The settings on record: both sexes, pooled human liver microsomes, pH 7.4, HLM, read-out: % of Control Enzyme Activity. The arrangement: from tissue; host or cells: pooled human liver microsomes, 200 donors. How it is done:
The HLMs were stored at −80° C. until use.
Negative (vehicle) controls were conducted without a test article.

Setting [5] is: Human cryopreserved hepatocytes, positive control 7-hydroxycoumarin 100 μM.
The mark [6] stands for this setting: Human hepatocytes, from 7-hydroxycoumarin (7-HC) 100 μM positive control.
Setting [7] is: Rat cryopreserved hepatocytes, positive control 7-hydroxycoumarin 100 μM.
[8] abbreviates: Rat hepatocytes, from 7-hydroxycoumarin (7-HC) 100 μM positive control.
The mark [9] stands for this setting: Mouse cryopreserved hepatocytes, positive control 7-hydroxycoumarin 100 μM.
[10] abbreviates: Mouse hepatocytes, from 7-hydroxycoumarin (7-HC) 100 μM positive control.
Setting [11] is: Dog cryopreserved hepatocytes, positive control 7-hydroxycoumarin 100 μM.
The mark [12] stands for this setting: Dog hepatocytes, from 7-hydroxycoumarin (7-HC) 100 μM positive control.
Setting [13] is: Monkey cryopreserved hepatocytes, positive control 7-hydroxycoumarin 100 μM.
Where [14] appears, read: Monkey hepatocytes, from 7-hydroxycoumarin (7-HC) 100 μM positive control.

Read-outs that look alike come from different tables or passages of the source.

Sequence of CYP2D6 (P10635 whole entry): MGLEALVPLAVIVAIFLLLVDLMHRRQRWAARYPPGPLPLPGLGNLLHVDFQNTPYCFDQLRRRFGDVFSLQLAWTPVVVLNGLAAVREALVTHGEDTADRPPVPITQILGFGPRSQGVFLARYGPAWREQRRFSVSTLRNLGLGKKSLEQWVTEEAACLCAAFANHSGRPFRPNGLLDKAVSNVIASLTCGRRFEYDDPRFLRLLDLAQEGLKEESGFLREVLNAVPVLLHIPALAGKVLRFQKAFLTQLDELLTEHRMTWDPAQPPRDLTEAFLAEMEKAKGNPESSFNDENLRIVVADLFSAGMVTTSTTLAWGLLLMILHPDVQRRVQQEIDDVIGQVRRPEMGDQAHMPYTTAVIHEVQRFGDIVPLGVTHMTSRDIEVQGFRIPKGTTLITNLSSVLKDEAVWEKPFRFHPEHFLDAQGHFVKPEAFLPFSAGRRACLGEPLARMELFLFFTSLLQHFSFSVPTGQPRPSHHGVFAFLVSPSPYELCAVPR
Sequence of CYP2C9 (P11712 whole entry): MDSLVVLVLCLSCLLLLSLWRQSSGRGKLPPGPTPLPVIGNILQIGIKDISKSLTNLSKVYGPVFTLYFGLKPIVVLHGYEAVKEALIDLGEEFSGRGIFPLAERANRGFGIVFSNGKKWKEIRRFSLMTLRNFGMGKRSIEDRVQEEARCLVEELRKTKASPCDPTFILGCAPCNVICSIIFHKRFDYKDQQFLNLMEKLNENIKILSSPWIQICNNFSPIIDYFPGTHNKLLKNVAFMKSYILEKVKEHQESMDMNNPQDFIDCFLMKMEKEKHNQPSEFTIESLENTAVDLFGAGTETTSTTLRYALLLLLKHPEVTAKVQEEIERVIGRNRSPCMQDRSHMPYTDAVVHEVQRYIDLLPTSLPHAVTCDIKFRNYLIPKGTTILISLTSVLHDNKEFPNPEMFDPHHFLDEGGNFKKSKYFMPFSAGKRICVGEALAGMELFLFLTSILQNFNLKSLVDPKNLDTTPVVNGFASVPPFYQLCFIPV

In the case of `O=C(O)[C@H]1O[C@@H](Oc2ccc3ccc(=O)oc3c2)[C@H](O)[C@@H](O)[C@@H]1O` [Compound 7-HC-G], the “Formation Rate” value turned out to be 316 pmol/min/10^6 cells in the data set on human hepatocytes (setting [5]); 316 pmol/min/10^6 cells in the data set with human hepatocytes (setting [6]); 253 pmol/min/10^6 cells in data set [1] (setting [7]); 253 pmol/min/10^6 cells in [1] (setting [8]); 234 pmol/min/10^6 cells in [2] (setting [9]); 234 pmol/min/10^6 cells in [2] (setting [10]). Besides, the “Formation Rate” value in data set [3] (setting [11]) is listed as 301 pmol/min/10^6 cells; in data set [3] (setting [12]) it was 301 pmol/min/10^6 cells; in data set [4] (setting [13]), 279 pmol/min/10^6 cells; in data set [4] (setting [14]), 279 pmol/min/10^6 cells.

`O=c1ccc2ccc(OS(=O)(=O)[O-])cc2o1.[K+]` [Compound 7-HC-S]: the “Formation Rate” value is recorded as 7.74 pmol/min/10^6 cells in the data set on human hepatocytes (setting [5]); 7.74 pmol/min/10^6 cells in the data set on human hepatocytes (setting [6]); 34.0 pmol/min/10^6 cells in data set [1] (setting [7]); 34 pmol/min/10^6 cells in [1] (setting [8]); 6.36 pmol/min/10^6 cells in [2] (setting [9]); 6.36 pmol/min/10^6 cells in data set [2] (setting [10]). The “Formation Rate” value in data set [3] (setting [11]) is on record as 24.5 pmol/min/10^6 cells; in [3] (setting [12]) it was 24.5 pmol/min/10^6 cells; in [4] (setting [13]), 13.3 pmol/min/10^6 cells; in data set [4] (setting [14]), 13.3 pmol/min/10^6 cells.

`C[n+]1ccc(-c2ccccc2)cc1` [MPP, MPP+]: the “Substrate Assessment” value on OCT2 is recorded as “Positive (Influx Rate Ratio≥2.0: Positive)”. The results for the “Influx Rate AVG” value at OCT2 (OCT2 cells) and at OCT2 (Vector Control cells) were 403 pmol/minute/mg/protein and 24.3 pmol/minute/mg/protein, respectively. The “Influx Rate Ratio” value at OCT2 (OCT2 vs Vector Control) came to 16.6.

At CYP2C8, `CC(C)(O)c1ccccc1CC[C@@H](SCC1(CC(=O)O)CC1)c1cccc(/C=C/c2ccc3ccc(Cl)cc3n2)c1` [Montelukast, montelukast] had an activity at 20 min, 0.123 µM of 54%; an activity at 20 min, 0.37 µM of 26.8%; an activity at 20 min, 3.33 µM of 4.22%; an activity at 20 min, 10 µM of 2.17%.

Take `C=C[C@H]1C[N@@]2CC[C@H]1C[C@@H]2[C@@H](O)c1ccnc2ccc(OC)cc12` [Quinidine, quinidine]: on CYP2D6 (0.123 μM), the activity at 20 min, 0.123 µM was 30.6%. Also, on CYP2D6 (0.370 μM), the activity at 20 min, 0.37 µM came to 17.7%. The activity at 20 min, 3.33 µM at CYP2D6 (3.33 μM) was found to be 8.69%. The activity at 20 min, 10 µM on CYP2D6 (10.0 μM) worked out at 7.28%.

`Nc1ccc(S(=O)(=O)Nc2ccnn2-c2ccccc2)cc1` [Sulfaphenazole, sulfaphenazole]: on CYP2C9 (0.123 μM), the activity at 20 min, 0.123 µM came out at 76.9%. Also, the activity at 20 min, 0.37 µM on CYP2C9 (0.370 μM) stood at 55.4%. The activity at 20 min, 3.33 µM at CYP2C9 (3.33 μM) is 16.3%. The activity at 20 min, 10 µM at CYP2C9 (10.0 μM) is 7.69%.
